Laboratory results taken from ChEMBL document CHEMBL5257097, “An Isomer of Galidesivir That Potently Inhibits Influenza Viruses and Members of the Bunyavirales Order” (ACS Med Chem Lett, 2023).

Key:
[1] = Selectivity index, ratio of CC50 for cytotoxicity against African green monkey Vero 76 cells infected with MERS-CoV assessed as reduction in cell viability by visual analysis to EC50 for antiviral activity against MERS-CoV infected in African green monkey Vero 76 cells assessed as reduction in virus-induced cytopathic effect by visual analysis; assay type: toxicity, cell-based; settings: read-out: Ratio CC50/EC50
Influenza A virus = experiment: Antiviral activity against Influenza A virus H1N1 infected in dog MDCK cells assessed as inhibition of viral replication measured after 15 to 30 mins by neutral red dye based analysis; assay type: functional, organism-based
[2] = Cytotoxicity against dog MDCK cells infected with Influenza A virus H3N2 assessed as reduction in cell viability by visual analysis; assay type: toxicity, cell-based, Canis lupus familiaris
[3] = Cytotoxicity against dog MDCK cells infected with Influenza A virus H7N9 assessed as reduction in cell viability by neutral red dye based analysis; assay type: toxicity, Canis lupus familiaris
[4] = Cytotoxicity against dog MDCK cells infected with Influenza B virus assessed as reduction in cell viability by visual analysis; assay type: toxicity, cell-based, Canis lupus familiaris
[5] = (§1) Selectivity index, ratio of CC50 for cytotoxicity against dog MDCK cells infected with Influenza A virus H1N1 assessed as reduction in cell viability by neutral red dye based analysis to EC50 for antiviral activity against Influenza A virus H1N1 infected in dog MDCK cells assessed as inhibition of viral replication by neutral red dye based analysis; assay type: toxicity; settings: read-out: Ratio CC50/EC50
[6] = as §1, with “H3N2” for “H1N1”; assay type: toxicity; settings: read-out: Ratio CC50/EC50
Punta Toro virus [7] = experiment: Antiviral activity against Punta Toro virus infected in African green monkey Vero 76 cells assessed as inhibition of viral replication by neutral red dye based analysis; assay type: functional, organism-based
Punta Toro virus [8] = experiment: Antiviral activity against Punta Toro virus infected in African green monkey Vero 76 cells assessed as inhibition of viral replication by visual analysis; assay type: functional, organism-based
Tacaribe virus = experiment: Antiviral activity against Tacaribe virus infected in African green monkey Vero cells assessed as inhibition of viral replication by neutral red dye based analysis; assay type: functional, organism-based; settings: Mammarenavirus tacaribeense
Heartland virus = experiment: Antiviral activity against Heartland virus infected in African green monkey Vero E6 cells assessed as reduction in viral yield measured for 3 days; assay type: functional; settings: Vero C1008, 72 h, time 3 day
[9] = system: Orthohantavirus maporalense; experiment: Antiviral activity against Maporal virus infected in African green monkey Vero E6 cells assessed as reduction in viral yield measured for 3 days; assay type: functional; settings: Vero C1008, 72 h, time 3 day
[10] = Cytotoxicity against African green monkey Vero cells infected with Pichinde virus assessed as reduction in cell viability by visual analysis; assay type: toxicity, cell-based; settings: chlorocebus sabaeus
[11] = Cytotoxicity against African green monkey Vero 76 cells infected with Punta Toro virus assessed as reduction in cell viability by visual analysis; assay type: toxicity, cell-based; settings: chlorocebus sabaeus
[12] = Cytotoxicity against African green monkey Vero 76 cells infected with Punta Toro virus assessed as reduction in cell viability by neutral red dye based analysis; assay type: toxicity; settings: chlorocebus sabaeus
[13] = Selectivity index, ratio of CC50 for cytotoxicity against African green monkey Vero E6 cells infected with Severe fever with thrombocytopenia syndrome virus assessed as reduction in cell viability to EC90 for antiviral activity against Severe fever with thrombocytopenia syndrome virus infected in African green monkey Vero E6 cells assessed as reduction in viral replication; assay type: toxicity, cell-based, Vero C1008
[14] = Toxicity in BALB/c mouse infected with influenza A/Ca/04/09 (H1N1) assessed as mortality at 30 mg/kg, ip measured every day for 6 days; assay type: organism-based; settings: in vivo, time 6 day, read-out: Activity
[15] = Toxicity in BALB/c mouse infected with influenza A/Ca/04/09 (H1N1) assessed as mortality at 300 mg/kg, ip measured every day for 6 days; assay type: organism-based; settings: in vivo, time 6 day, read-out: Activity
dengue virus type 2 = experiment: Antiviral activity against DENV-2 infected in African green monkey Vero cells assessed as reduction in virus-induced cytopathic effect measured after 15 to 30 mins by neutral red based analysis; assay type: functional, organism-based
[16] = Selectivity index, ratio of CC50 for cytotoxicity against African green monkey Vero cells infected with DENV-2 assessed as reduction in cell viability by neutral red analysis to EC50 for antiviral activity against DENV-2 infected in human Huh-7 cells assessed as reduction in virus-induced cytopathic effect by neutral red analysis; assay type: toxicity, cell-based; settings: read-out: Ratio CC50/EC50
[17] = Cytotoxicity against vervet monkey MA-104 cells infected with MERS-CoV assessed as reduction in cell viability by neutral red dye based assay; assay type: toxicity; settings: cercopithecus pygerythrus

Nc1ncnn2c([C@@H]3N[C@H](CO)[C@@H](O)[C@H]3O)ccc12
selectivity ratio [1]: 31
EC50 (Influenza A virus): 0.32 µM
CC50 [2]: 12 µM
CC50 [3]: 30 µM
CC50 [4]: 12 µM
selectivity ratio [5]: 44
selectivity ratio [6]: 44
EC50 (Punta Toro virus [7]): 0.27 µM
EC50 (Punta Toro virus [8]): 0.32 µM
EC50 (Tacaribe virus): 0.33 µM
EC90 (Heartland virus): 0.13 µM
EC90 [9]: 0.86 µM
CC50 [10]: 16 µM
CC50 [11]: 13 µM
CC50 [12]: 10 µM
selectivity ratio [13]: 49
mortality at 144 h [14]: 15%
mortality at 144 h [15]: 100%

Nc1ncnc2c([C@@H]3N[C@H](CO)[C@@H](O)[C@H]3O)c[nH]c12 [GALIDESIVIR]
EC50 (dengue virus type 2): 15 µM
selectivity ratio [16]: > 6.7
CC50 [17]: > 100 µM
